# Numbered stars: 1 amine (or outer) side, 2 acyl side, 3 side chain; on linkers, the order of the positions; unused ones are H or OH. Bridge positions count the residues as written; N and C are the ends. Square brackets hold non-standard residues; d marks the D form. Side chains are listed from the residue outwards. Peptide text beside a SMILES is read from it. * marks the point of attachment. C20 diacid = O=C(O)CCCCCCCCCCCCCCCCCCC(=O)*; C18 diacid = O=C(O)CCCCCCCCCCCCCCCCC(=O)*; γGlu = O=C(O)[C@H](CCC(=O)[*:2])N[*:1]; AEEA = NCCOCCOCC(=O)O; Aib = CC(C)(N)C(=O)O
# Columns and labels:
# [1] = target: T1, human amylin receptor (calcitonin receptor co-expressed with receptor activity modifying protein, RAMP3) (hAMYR3) (Homo sapiens, UniProt O60896+P30988); assay: cAMP production in 1321N1 cells with stable recombinant expression of human amylin receptor (hAMYR3); format: cell-based; settings: for Ratio (selectivity hAMYR vs hCTR, ratio of EC50 values at the two receptors): EC50 hCTR / EC50 hAMYR3; for EC50: cAMP, 1321N1 cells, assay buffer with 0.1% BSA, read-out: EC50 (pM) hAMYR3
# T1 construct: expressed in transfected cells
# T1 sequence (P30988 25-474): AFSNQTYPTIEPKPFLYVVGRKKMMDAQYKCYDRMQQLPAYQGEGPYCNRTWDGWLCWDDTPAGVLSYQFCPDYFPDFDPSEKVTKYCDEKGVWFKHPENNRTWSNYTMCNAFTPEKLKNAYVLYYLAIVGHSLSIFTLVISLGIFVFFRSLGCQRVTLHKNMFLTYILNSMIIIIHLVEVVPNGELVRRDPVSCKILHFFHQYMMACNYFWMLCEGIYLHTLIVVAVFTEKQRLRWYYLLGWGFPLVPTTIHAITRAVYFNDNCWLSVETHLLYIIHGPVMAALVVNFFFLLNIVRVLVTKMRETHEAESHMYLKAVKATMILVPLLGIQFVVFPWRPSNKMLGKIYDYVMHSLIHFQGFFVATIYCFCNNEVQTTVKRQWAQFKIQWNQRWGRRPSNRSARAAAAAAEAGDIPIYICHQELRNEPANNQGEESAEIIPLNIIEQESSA
# T1 sequence (O60896 24-148 partner): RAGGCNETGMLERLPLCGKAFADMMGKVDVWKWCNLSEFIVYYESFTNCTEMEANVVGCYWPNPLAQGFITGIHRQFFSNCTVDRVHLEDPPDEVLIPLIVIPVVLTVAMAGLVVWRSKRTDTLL
# How it was run: (§1)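 Thawed cells in HBSS/0.1% BSA/25 mM HEPES pH 7.4 with 0.5 mM IBMX were incubated with peptides 30 min at room temperature; cAMP read by HTRF. EC50 from 4-parameter fit of % activation relative to maximal amylin or calcitonin effect.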
# in vivo = settings: male, Sprague-Dawley, rat, 20 nmol/kg
# [2] = target: T2, human calcitonin receptor (hCTR) (Homo sapiens, UniProt P30988); assay: cAMP production in 1321N1 cells with stable recombinant expression of human calcitonin receptor (hCTR); format: cell-based; settings: cAMP, 1321N1 cells, assay buffer with 0.1% BSA; read-out: EC50 (pM) hCTR
# T2 construct: expressed in transfected cells
# T2 sequence (P30988 25-474): T1 sequence (P30988 25-474)
# How it was run: as §1
# [3] = Thioflavin T fibrillation assay; format: physicochemical; settings: for fibril-forming tendency: ThT assay, 1 mg/mL, pH 4.0, 37 °C, compared to pramlintide; for Time taken to detect increase in fluorescence intensity: ThT fibrillation assay, peptide 1 mg/mL in 25 mM sodium acetate buffer pH 4.0, 6 days at 37 °C with shaking, >144 h = no increase
# Text: Peptide aggregation that form fibrils is an indication of physical instability. Fibril formation in solution poses a significant risk for the stability of injectable peptide drug products. Thioflavin T (ThT) fibrillation assay is a useful tool to assess the aggregation kinetics of a peptide or protein under accelerated and stressed conditions that can be used to forecast the long-term viability of a compound in solution. ThT can selectively bind amyloid fibrils and the resultant complex emits strong fluorescence signal at 482 nm when excited at 450 nm (Anal Biochem. 1989 Mar;177(2):244-9). Monitoring of the change in fluorescence signal is an established method to study the fibril forming potential of peptides and proteins. ThT (purchased from Sigma Aldrich) stock solution is prepared by dissolving the ThT powder in Milli-Q water and filtered to obtain a 0.25 mM solution. The concentration of the solution is measured at 412 nm using an extinction coefficient of 36 mM^−1cm^−1. Test peptides were dissolved at 1 mg/mL in 25 mM sodium acetate buffer pH 4.0. 100 μL aliquot of peptide solution and 5 μL aliquot of ThT solution were placed in a clear bottom black fluorescence 96-well plate. 5 replicates of each test samples were placed in zo the same row of the plate. Buffer was placed in control wells for baseline correction. All empty wells were filled with water to prevent evaporation. The plate was sealed with aluminium seal and placed in fluorescence plate reader and incubated for 6 days at 37 ° C. with intermittent orbital shaking at 500 to 750 rpm. The fluorescence intensity was measured every 30 min using excitation at 444 nm and emission at 480 nm. The fibril forming potential of the test peptides was determined by measuring the average time taken to detect an increase in baseline corrected fluorescence intensity.
Compound,"Ratio (selectivity hAMYR vs hCTR, ratio of EC50 values at the two receptors) [1]",EC50 [1] [pM],half-life (in vivo; iv) [h],half-life (in vivo; sc) [h],EC50 [2] [pM],fibril-forming tendency [3],Time taken to detect increase in fluorescence intensity [3] [h]
CC[C@H](C)[C@H](NC(=O)[C@@H]1CCCN1C(=O)CNC(=O)[C@H](Cc1ccccc1)NC(=O)[C@H](CC(N)=O)NC(=O)[C@H](CC(N)=O)NC(=O)[C@H](CO)NC(=O)[C@H](CO)NC(=O)[C@H](Cc1c[nH]cn1)NC(=O)[C@@H](NC(=O)[C@H](CC(C)C)NC(=O)[C@H](Cc1ccccc1)NC(=O)[C@H](CC(N)=O)NC(=O)[C@H](C)NC(=O)[C@H](CC(C)C)NC(=O)[C@H](CCCNC(=N)N)NC(=O)[C@H](CCC(N)=O)NC(=O)[C@@H](NC(=O)[C@H](C)NC(=O)[C@@H]1CSSC[C@H](NC(=O)[C@H](CCCCN)NC(=O)CNC(=O)CNC(=O)CNC(=O)CC[C@H](NC(=O)CC[C@H](NC(=O)CCCCCCCCCCCCCCCCC(=O)O)C(=O)O)C(=O)O)C(=O)N[C@@H](CC(N)=O)C(=O)N[C@@H]([C@@H](C)O)C(=O)N[C@@H](C)C(=O)N[C@@H]([C@@H](C)O)C(=O)N1)[C@@H](C)O)C(C)C)C(=O)N[C@@H](CC(C)C)C(=O)N1CCC[C@H]1C(=O)N1CCC[C@H]1C(=O)N[C@H](C(=O)N[C@@H](CC(N)=O)C(=O)N[C@H](C(=O)NCC(=O)N[C@@H](CO)C(=O)N[C@@H](CC(N)=O)C(=O)N[C@H](C(=O)N[C@@H](Cc1ccc(O)cc1)C(N)=O)[C@@H](C)O)C(C)C)[C@@H](C)O [Peptide 4] ({C18 diacid-γGlu-γGlu}-GGGKCNTATCATQRLANFLVHSSNNFGPILPPTNVGSNTY-NH2; disulfide 5-10),30,248,12,12,7530,increases the fibril-forming tendency,<5
CC[C@H](C)[C@H](NC(=O)[C@@H]1CCCN1C(=O)CNC(=O)[C@H](Cc1ccccc1)NC(=O)[C@H](CC(N)=O)NC(=O)[C@H](CC(N)=O)NC(=O)[C@H](CO)NC(=O)[C@H](CO)NC(=O)[C@H](Cc1c[nH]cn1)NC(=O)[C@@H](NC(=O)[C@H](CC(C)C)NC(=O)[C@H](Cc1ccccc1)NC(=O)[C@H](CC(N)=O)NC(=O)[C@H](C)NC(=O)[C@H](CC(C)C)NC(=O)[C@H](CCCNC(=N)N)NC(=O)[C@H](CCC(N)=O)NC(=O)[C@@H](NC(=O)[C@H](C)NC(=O)[C@@H]1CSSC[C@H](NC(=O)[C@@H](N)CCCCNC(=O)CC[C@H](NC(=O)CC[C@H](NC(=O)CCCCCCCCCCCCCCCCC(=O)O)C(=O)O)C(=O)O)C(=O)N[C@@H](CC(N)=O)C(=O)N[C@@H]([C@@H](C)O)C(=O)N[C@@H](C)C(=O)N[C@@H]([C@@H](C)O)C(=O)N1)[C@@H](C)O)C(C)C)C(=O)N[C@@H](CC(C)C)C(=O)N1CCC[C@H]1C(=O)N1CCC[C@H]1C(=O)N[C@H](C(=O)N[C@@H](CC(N)=O)C(=O)N[C@H](C(=O)NCC(=O)N[C@@H](CO)C(=O)N[C@@H](CC(N)=O)C(=O)N[C@H](C(=O)N[C@@H](Cc1ccc(O)cc1)C(N)=O)[C@@H](C)O)C(C)C)[C@@H](C)O [Peptide 5] (H-K([γGlu-γGlu-C18 diacid])CNTATCATQRLANFLVHSSNNFGPILPPTNVGSNTY-NH2; disulfide 2-7; N-terminus assumed),21,174,10.5,9.4,3600,increases the fibril-forming tendency,7
CC[C@H](C)[C@H](NC(=O)[C@@H]1CCCN1C(=O)CNC(=O)[C@H](Cc1ccccc1)NC(=O)[C@H](CC(N)=O)NC(=O)[C@H](CC(N)=O)NC(=O)[C@H](CO)NC(=O)[C@H](CO)NC(=O)[C@H](Cc1c[nH]cn1)NC(=O)[C@@H](NC(=O)[C@H](CC(C)C)NC(=O)[C@H](Cc1ccccc1)NC(=O)[C@H](CC(N)=O)NC(=O)[C@H](C)NC(=O)[C@H](CC(C)C)NC(=O)[C@H](CCCNC(=N)N)NC(=O)[C@H](CCC(N)=O)NC(=O)[C@@H](NC(=O)[C@H](C)NC(=O)[C@@H]1CSSC[C@H](NC(=O)[C@@H](N)CCCCNC(=O)COCCOCCNC(=O)COCCOCCNC(=O)CC[C@H](NC(=O)CCCCCCCCCCCCCCCCC(=O)O)C(=O)O)C(=O)N[C@@H](CC(N)=O)C(=O)N[C@@H]([C@@H](C)O)C(=O)N[C@@H](C)C(=O)N[C@@H]([C@@H](C)O)C(=O)N1)[C@@H](C)O)C(C)C)C(=O)N[C@@H](CC(C)C)C(=O)N1CCC[C@H]1C(=O)N1CCC[C@H]1C(=O)N[C@H](C(=O)N[C@@H](CC(N)=O)C(=O)N[C@H](C(=O)NCC(=O)N[C@@H](CO)C(=O)N[C@@H](CC(N)=O)C(=O)N[C@H](C(=O)N[C@@H](Cc1ccc(O)cc1)C(N)=O)[C@@H](C)O)C(C)C)[C@@H](C)O [Peptide 6] (H-K([AEEA-AEEA-γGlu-C18 diacid])CNTATCATQRLANFLVHSSNNFGPILPPTNVGSNTY-NH2; disulfide 2-7; N-terminus assumed),5,68,9.5,17.6,310,increases the fibril-forming tendency,15
"CC[C@H](C)[C@H](NC(=O)[C@H](C)NC(=O)[C@@H]1CCCN1C(=O)[C@H](Cc1ccccc1)NC(=O)[C@H](CC(N)=O)NC(=O)C(C)(C)NC(=O)[C@H](CO)NC(=O)[C@H](CO)NC(=O)[C@H](Cc1c[nH]cn1)NC(=O)[C@@H](NC(=O)[C@H](CC(C)C)NC(=O)[C@H](Cc1ccccc1)NC(=O)[C@H](CC(N)=O)NC(=O)[C@H](C)NC(=O)[C@H](CC(C)C)NC(=O)[C@H](CCCNC(=N)N)NC(=O)[C@H](CCC(N)=O)NC(=O)[C@@H](NC(=O)[C@H](C)NC(=O)[C@@H]1CSSC[C@H](NC(=O)[C@@H](N)CCCCNC(=O)CC[C@H](NC(=O)CC[C@H](NC(=O)CCCCCCCCCCCCCCCCCCC(=O)O)C(=O)O)C(=O)O)C(=O)N[C@@H](CC(N)=O)C(=O)N[C@@H]([C@@H](C)O)C(=O)N[C@@H](C)C(=O)N[C@@H]([C@@H](C)O)C(=O)N1)[C@@H](C)O)C(C)C)C(=O)N[C@@H](CC(C)C)C(=O)N[C@@H](CO)C(=O)N1CCC[C@H]1C(=O)N[C@H](C(=O)N[C@@H](CC(N)=O)C(=O)N[C@H](C(=O)NCC(=O)N[C@@H](CO)C(=O)N[C@@H](CC(N)=O)C(=O)N[C@H](C(=O)N[C@@H](Cc1ccc(O)cc1)C(N)=O)[C@@H](C)O)C(C)C)[C@@H](C)O [Peptide 117, K(γE-γE-C20diacid)[CNTATC]ATQRLANFLVHSS(Aib)NFPAILSPTNVGSNTY-amide] (H-K([γGlu-γGlu-C20 diacid])CNTATCATQRLANFLVHSS[Aib]NFPAILSPTNVGSNTY-NH2; disulfide 2-7; N-terminus assumed)",4,770,9.8,12.9,3190,,

# From US20240067693A1, “POLYPEPTIDES AND USES THEREOF” (MEDIMMUNE LIMITED, priority 2020, published 2024)
